The results in this text go back to patent US20160130278A1 (TAISHO PHARMACEUTICAL CO., LTD, priority 2013, published 2016).

The target in the test is T1, human type 1 glycine transporter (GlyT1) (Homo sapiens, UniProt P48067).
T1 construct: T98G cells (glioma cells) expressing human type 1 glycine transporter (GlyT1) were used
T1 sequence (P48067 1-706): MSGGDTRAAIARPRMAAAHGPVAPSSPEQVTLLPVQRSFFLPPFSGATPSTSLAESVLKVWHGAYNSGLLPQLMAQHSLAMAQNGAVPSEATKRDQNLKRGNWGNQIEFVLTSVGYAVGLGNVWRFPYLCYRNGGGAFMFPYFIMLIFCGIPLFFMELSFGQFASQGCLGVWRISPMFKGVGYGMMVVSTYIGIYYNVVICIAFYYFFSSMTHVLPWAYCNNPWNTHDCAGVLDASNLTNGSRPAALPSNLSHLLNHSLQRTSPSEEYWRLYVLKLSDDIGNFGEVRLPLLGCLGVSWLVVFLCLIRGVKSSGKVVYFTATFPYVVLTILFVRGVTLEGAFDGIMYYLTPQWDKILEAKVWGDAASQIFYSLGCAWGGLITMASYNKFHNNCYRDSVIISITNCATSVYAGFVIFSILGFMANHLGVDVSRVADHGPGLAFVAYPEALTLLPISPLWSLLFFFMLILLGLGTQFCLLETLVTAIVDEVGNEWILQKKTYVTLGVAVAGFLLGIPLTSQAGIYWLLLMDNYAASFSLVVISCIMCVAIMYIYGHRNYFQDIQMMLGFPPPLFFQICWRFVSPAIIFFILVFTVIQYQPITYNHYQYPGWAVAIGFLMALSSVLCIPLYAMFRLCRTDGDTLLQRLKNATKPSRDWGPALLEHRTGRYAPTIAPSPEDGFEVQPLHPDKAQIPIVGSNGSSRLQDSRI
The test is described as follows: Glycine uptake inhibition experiment ([3H]glycine uptake). The class given is cell-based. To be noted: GlyT1. The method in brief:
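T98G glioma cells expressing human GlyT1 were pretreated 10 min with compound in HEPES buffer pH 7.4 (0.2% BSA), then incubated with compound plus 250 nM final [3H]glycine for 15 min at room temperature. Intracellular radioactivity was counted after NaOH lysis; 10 μM ALX5407 defined non-specific uptake. IC50 came from 10^−9–10^−5 M curves.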

On to `O=C(NC(c1cc(Cl)ccc1F)[C@]1(O)CC[C@@H](F)CC1)c1ccnc(C(F)(F)F)c1Cl` (single isomer, unassigned) [Compound 376, 3-chloro-N-[(5-chloro-2-fluorophenyl)(cis-4-fluoro-1-hydroxycyclohexyl)methyl]-2-(trifluoromethyl)pyridine-4-carboxamide], for which the IC50 is 0.55 µM. In the case of `CCn1cc(-c2cccc(C(NC(=O)c3c(Cl)cccc3Cl)C3(O)CCC(F)(F)CC3)c2)cn1` (stereo not shown) [Compound 174, 2,6-dichloro-N-{(4,4-difluoro-1-hydroxycyclohexyl)[3-(1-ethyl-1H-pyrazol-4-yl)phenyl]methyl}benzamide], half-maximal inhibition (IC50) was put at 1.1 µM. For the compound `O=C(NC(c1cccc(Cl)n1)C1(O)CCC(F)(F)CC1)c1nccc(C(F)(F)F)c1Cl` (single isomer, unassigned) [Compound 311, 3-chloro-N-[(6-chloropyridin-2-yl)(4,4-difluoro-1-hydroxycyclohexyl)methyl]-4-(trifluoromethyl)pyridine-2-carboxamide], the IC50 amounted to 0.077 µM. On to `O=C(NC(c1cccc(Cl)n1)[C@]1(O)CC[C@@H](F)CC1)c1cccc(C(F)(F)F)c1Cl` (single isomer, unassigned) [Compound 327], for which the midpoint of inhibition, the IC50, lay at 0.081 µM. In the case of `O=C(NC(c1cccc(F)c1Cl)[C@]1(O)CC[C@@H](F)CC1)c1ccc(Cl)cc1Cl` (single isomer, unassigned) [Compound 264, 2,4-dichloro-N-[(2-chloro-3-fluorophenyl)(cis-4-fluoro-1-hydroxycyclohexyl)methyl]benzamide] it was 0.91 µM; in that of `Cc1cccc(C(NC(=O)c2nccc(C(F)(F)F)c2Cl)C2(O)CCCC2)c1` (stereo not shown) [Compound 48, 3-chloro-N-[(1-hydroxycyclopentyl)(3-methylphenyl)methyl]-4-(trifluoromethyl)pyridine-2-carboxamide], 0.67 µM; in that of `O=C(NC(c1ccccc1Cl)C1(O)CCC(F)(F)CC1)c1nccc(C(F)(F)F)c1Cl` (single isomer, unassigned) [Compound 147, 3-chloro-N-[(2-chlorophenyl)(4,4-difluoro-1-hydroxycyclohexyl)methyl]-4-(trifluoromethyl)pyridine-2-carboxamide], 0.11 µM. The compound `O=C(NC(c1cccnc1Cl)[C@]1(O)CC[C@@H](F)CC1)c1nccc2ccccc12` (single isomer, unassigned) [Compound 326, N-[(2-chloropyridin-3-yl)(cis-4-fluoro-1-hydroxycyclohexyl)methyl]isoquinoline-1-carboxamide] displayed an IC50 of 1.1 µM. Turning to `O=C(NC(c1cccc(Cl)n1)[C@]1(O)CC[C@@H](F)CC1)c1nccc2ccccc12` (single isomer, unassigned) [Compound 310, N-[(6-chloropyridin-2-yl)(cis-4-fluoro-1-hydroxycyclohexyl)methyl]isoquinoline-1-carboxamide], the IC50 was 0.55 µM.

As to `O=C(NC(c1cccnc1Cl)C1(O)CCC(F)(F)CC1)c1ccnc(C(F)(F)F)c1Cl` (single isomer, unassigned) [Compound 341, 3-chloro-N-[(2-chloropyridin-3-yl)(4,4-difluoro-1-hydroxycyclohexyl)methyl]-2-(trifluoromethyl)pyridine-4-carboxamide], it took 0.85 µM to reach half-maximal inhibition (IC50). The result for `O=C(NC(c1ccccc1Br)C1(O)CCCC1)c1nccc(C(F)(F)F)c1Cl` (stereo not shown) [Compound 32, N-[(2-bromophenyl)(1-hydroxycyclopentyl)methyl]-3-chloro-4-(trifluoromethyl)pyridine-2-carboxamide] reads 0.06 µM; that for `O=C1CCC(O)(C(NC(=O)c2nccc(C(F)(F)F)c2Cl)c2cccc(Cl)c2)C1` (stereo not shown) [Compound 130, 3-chloro-N-[(3-chlorophenyl)(1-hydroxy-3-oxocyclopentyl)methyl]-4-(trifluoromethyl)pyridine-2-carboxamide], 1.1 µM; that for `O=C(NC(c1cc(Cl)ccn1)C1(O)CCC(F)(F)CC1)c1ccnc(C(F)(F)F)c1Cl` (single isomer, unassigned) [Compound 346, 3-chloro-N-[(4-chloropyridin-2-yl)(4,4-difluoro-1-hydroxycyclohexyl)methyl]-2-(trifluoromethyl)pyridine-4-carboxamide], 0.36 µM. `O=C(NC(c1cc(Cl)ccc1Cl)C1(O)CCCC1)c1nccc(C(F)(F)F)c1Cl` (single isomer, unassigned) [Compound 114, 3-chloro-N-[(2,5-dichlorophenyl)(1-hydroxycyclopentyl)methyl]-4-(trifluoromethyl)pyridine-2-carboxamide]: half-maximal inhibition (IC50) required 0.065 µM. The compound `O=C(NC(c1ccccc1F)[C@]1(O)CC[C@H](F)CC1)c1nccc(C(F)(F)F)c1Cl` (single isomer, unassigned) [Compound 240, 3-chloro-N-[(trans-4-fluoro-1-hydroxycyclohexyl)(2-fluorophenyl)methyl]-4-(trifluoromethyl)pyridine-2-carboxamide] showed an IC50 of 0.23 µM.

The compound `O=C(NC(c1ccccc1)[C@]1(O)CC[C@@H](F)CC1)c1nccc(C(F)(F)F)c1Cl` (stereo partly drawn) [Compound 158, 3-chloro-N-[(cis-4-fluoro-1-hydroxycyclohexyl)(phenyl)methyl]-4-(trifluoromethyl)pyridine-2-carboxamide] had an IC50 of 0.35 µM. With `O=C(NC(c1cccc(Cl)n1)C1(O)CCC(F)(F)CC1)c1cc(C(F)(F)F)ncc1Cl` (single isomer, unassigned) [Compound 353, 5-chloro-N-[(6-chloropyridin-2-yl)(4,4-difluoro-1-hydroxycyclohexyl)methyl]-2-(trifluoromethyl)pyridine-4-carboxamide], the IC50 turned out to be 0.15 µM.

Turning to `CCn1cc(-c2cccc(C(NC(=O)c3ccc(F)cc3C(F)(F)F)C3(O)CCC(F)(F)CC3)c2)cn1` (stereo not shown) [Compound 192, N-{(4,4-difluoro-1-hydroxycyclohexyl)[3-(1-ethyl-1H-pyraozl-4-yl)phenyl]methyl}-4-fluoro-2-(trifluoromethyl)benzamide], the IC50 amounted to 0.34 µM.

The compound `Cc1ccc(C(NC(=O)c2nccc(C(F)(F)F)c2Cl)C2(O)CCCC2)cc1` (stereo not shown) [Compound 49, 3-chloro-N-[(1-hydroxycyclopentyl)(4-methylphenyl)methyl]-4-(trifluoromethyl)pyridine-2-carboxamide] yielded an IC50 of 3.8 µM.

`COc1cccc(C(NC(=O)c2nccc(C(F)(F)F)c2Cl)C2(O)CCCC2)c1` (stereo not shown) [Compound 51, 3-chloro-N-[(1-hydroxycyclopentyl)(3-methoxyphenyl)methyl]-4-(trifluoromethyl)pyridine-2-carboxamide] returned a 50% inhibitory concentration (IC50) of 0.37 µM.

Take `O=C(NC(c1cccc(F)c1Cl)[C@]1(O)CC[C@@H](F)CC1)c1ccccc1OC(F)(F)F` (single isomer, unassigned) [Compound 282, N-[(2-chloro-3-flurophenyl)(cis-4-fluoro-1-hydroxycyclohexyl)methyl]-2-(trifluoromethoxy)benzamide]: the IC50 was 3.4 µM.

`O=C(NC(c1cccc(-c2ncccn2)c1)C1(O)CCC(F)(F)CC1)c1nccc(C(F)(F)F)c1Cl` (stereo not shown) [Compound 160, 3-chloro-N-{(4,4-difluoro-1-hydroxycyclohexyl)[3-(pyrimidin-2-yl)phenyl]methyl}-4-(trifluoromethyl)pyridine-2-carboxamide] displayed an IC50 of 0.88 µM.

The term IC50 denotes the midpoint of a concentration-inhibition curve.
